Laboratory results: patent publication US5637725A, “Substituted aryl and cycloalkyl imidazolones; a new class of GABA brain receptor ligands” (Neurogen Corporation, priority 1995, dated 1997)

Target: GABAa receptor
Assay: [3H]-RO15-1788 (Flumazenil) binding assay for GABAa receptor activity, rat cortical tissue
Details: 0.5 nM 3H-RO15-1788; rat cortical tissue homogenate; 30 min at 4° C.; nonspecific binding with 1.0 mM diazepam
Experimental: The pharmaceutical utility of compounds of this invention are indicated by the following assay for GABAa receptor activity.
Assays are carried out as described in Thomas and Tallman (J. Bio. Chem. 156: 9838-9842, J. Neurosci. 3: 433-440, 1983). Rat cortical tissue is dissected and homogenized in 25 volumes (w/v) of 0.05M Tris HCl buffer (pH 7.4 at 4° C.). The tissue homogenate is centrifuged in the cold (4°) at 20,000×g for 20'. The supernatant is decanted and the pellet is rehomogenized in the same volume of buffer and again centrifuged at 20,000×g. The supernatant is decanted and the pellet is frozen at -20° C. overnight. The pellet is then thawed and rehomogenized in 25 volume (original wt/vol) of buffer and the procedure is carried out twice. The pellet is finally resuspended in 50 volumes (w/vol of 0.05M Tris HCl buffer (pH 7.4 at […]).
Incubations contain […] of radioligand 0.5 nM (^3 H-RO15-1788 [^3 H-Flumazenil] specific activity 80 Ci/mmol), drug or blocker and buffer to a total volume of […]. Incubations are carried for 30 min at 4° C. then are rapidly filtered through GFB filters to separate free and bound ligand. Filters are washed twice with fresh 0.05M Tris HCl buffer (pH 7.4 at 4° C.) and counted in a liquid scintillation counter. […] diazepam is added to some tubes to determine nonspecific binding. Data are collected in triplicate determinations, averaged and % inhibition of total specific binding is calculated. Total Specific Binding=Total-Nonspecific. In some cases, the amounts of unlabeled drugs is varied and total displacement curves of binding are carried out. Data are converted to a form for the calculation of IC50 and Hill Coefficient (nH).

| SMILES | Ki |
| --- | --- |
| O=c1[nH]c2c(n1-c1nc3ccc(F)c(F)c3o1)CCCC2 [Compound 5] | 21 nM |
| O=c1[nH]c2c(n1-c1nc3ccc(F)cc3o1)CCCCC2 [Compound 2] | 4.6 nM |
| O=c1[nH]c2cc(F)ccc2n1-c1nc2cccc(F)c2o1 [Compound 3, 3-(2-(7-fluorobenzoxazyl))-6-fluorobenzimidazol-2-(1H)-one] | 14 nM |
| O=c1[nH]c2c(n1-c1nc3ccc(F)c(F)c3o1)CCCCC2 [Compound 1] | 3 nM |
| COc1ccc2oc(-n3c4c([nH]c3=O)CCCC4)nc2c1 [Compound 6] | 81 nM |
| O=c1[nH]c2cc(F)ccc2n1-c1nc2ccc(F)cc2o1 [Compound 4, 3-(2-(6-fluorobenzoxazyl))-6-fluorobenzimidazol-2-(1H)-one] | 5 nM |

System: GABA receptor
Assay: not given
Details: brain membranes; cited from earlier work

| SMILES | blockade of enhancement of benzodiazepine binding by GABA agonists |
| --- | --- |
| CN1CCc2cc3c(cc2[C@@H]1[C@H]1OC(=O)c2c1ccc1c2OCO1)OCO3 [(-) bicuculline] | much less active |
| CN1CCc2cc3c(cc2[C@H]1[C@@H]1OC(=O)c2c1ccc1c2OCO1)OCO3 [(+) bicuculline] | blocked |
